The source of these data is PubChem BioAssay (NCI).

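How tested: cells in 96-well plates exposed to compound for 48 hours at five concentrations. At the GI50, growth is halved. TGI marks complete inhibition of growth.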 Where only a bound is given, the exact number is not on record here.

Assay in all cases: NCI-60 cell line screen, 48 h
Test [1] relates to HCT-116 colon.
For test [2], the system named is SN12C renal.
Test [3] deals with HOP-92 NSCLC.
Test [4] has as its system UO-31 renal.
In test [5] the test system is SK-OV-3 ovarian.
The subject of test [6] is DU-145 prostate.
Test [7] relates to MALME-3M melanoma.
For test [8], the system named is RPMI-8226 leukemia.
The test system of test [9] is K-562 leukemia.
Test [10] deals with SK-MEL-5 melanoma.

Take `C[Se]C(=O)CC1=C2C=C(F)C=CC2/C(=C\c2ccc(S(C)=O)cc2)C1C` (centres undefined): the GI50 in test [1] was 0.119 µM; in test [2] it was 0.0401 µM; in [3], 0.165 µM; in test [4] it was 0.036 µM; in [5] it was 0.0493 µM; in test [6], 0.0187 µM. Further, the GI50 in test [7] was 0.156 µM; in [8], 2.31 µM; in test [9], 1.36 µM; in test [10], 0.111 µM. For the same compound, the TGI in test [1] amounted to 1.64 µM; in [2] it was 1.34 µM; in [3], 0.417 µM; in [4] it was 0.179 µM; in test [5], 1.58 µM; in test [6], 1.16 µM. Besides, the TGI in test [7] is 0.4 µM; in [8] it was 6.15 µM; in [9], more than 100 µM; in test [10], 0.266 µM.

For `N#Cc1nc(-c2ccccc2)oc1S(=O)(=O)N1CCOCC1`, the GI50 was 1.74 µM in test [1]; 4.12 µM in test [2]; 1.6 µM in [3]; 1.51 µM in test [4]; 56.2 µM in [5]; 6.08 µM in test [6]. Besides, the GI50 is 1.59 µM in test [7], 2.58 µM in [8], 2.03 µM in [9] and 5.23 µM in test [10]. For the same compound, the TGI in test [1] was 3.42 µM; in [2] it was 17.1 µM; in test [3] it was 3.15 µM; in test [4], 2.89 µM; in test [5], more than 100 µM; in test [6], 19.1 µM. In addition, the TGI in test [7] was 3.15 µM; in test [8] it was 7.89 µM; in [9], more than 100 µM; in test [10], 17.3 µM.

Take `CCSC1=CC(=O)c2ccccc2C1=O`: the GI50 in test [1] was 1.48 µM; in test [2], 14.5 µM; in [3], 1.32 µM; in test [4] it was 1.28 µM; in test [5], 18.1 µM; in test [6] it was 14.4 µM. Also, the GI50 was 1.99 µM in test [7], 1.49 µM in [8], 1.61 µM in test [9] and 7.11 µM in test [10]. Moreover, the TGI in [1] is 2.84 µM; in test [2], 28.6 µM; in [3] it was 2.66 µM; in [4], 4.06 µM; in [5], 32 µM; in [6] it was 27.8 µM. Moreover, the TGI in [7] came to 5.34 µM; in test [8], 5.65 µM; in [9], 4.52 µM; in test [10], 20.3 µM.

For `COC(=O)CCC1=C(C)c2cc3[n-]c(cc4nc(cc5[n-]c(cc1n2)c(CCC(=O)OC)c5C)C=C4C)cc3C.[Cd+2]`, the GI50 is 8.42 µM in test [1]; 19.1 µM in test [2]; 16.7 µM in [3]; 21.7 µM in [4]; 7.4 µM in [5]; 4.5 µM in test [6]. In addition, the GI50 in test [7] is 2.55 µM; in test [8], 4.23 µM; in [9], 3.32 µM; in test [10] it was 1.14 µM. In addition, the TGI was 25.3 µM in test [1]; 58 µM in [2]; 40 µM in test [3]; 65.7 µM in test [4]; 27.7 µM in test [5]; 10.4 µM in test [6]. Further, the TGI is 7.58 µM in [7], more than 29.5 µM in [8], more than 30.8 µM in test [9] and 2.83 µM in [10].

As to `C[C@@H]1CC[C@@]2(OC1)O[C@H]1C[C@H]3[C@@H]4CC=C5C[C@@H](O[C@@H]6O[C@H](CO)[C@@H](O[C@@H]7O[C@@H](CO)[C@H](O)[C@H]7O)[C@H](O)[C@H]6O[C@@H]6O[C@@H](C)[C@H](O)[C@@H](O)[C@H]6O)CC[C@]5(C)[C@H]4CC[C@]3(C)[C@H]1[C@@H]2C`, the TGI in test [1] stood at 2.09 µM; in test [2], 1.65 µM; in test [3], 2.1 µM; in test [4], 2.55 µM; in [5], 3.04 µM; in [6], 2.4 µM. Also, the TGI in test [7] worked out at 2 µM; in test [8], 2.4 µM; in test [9], 2.64 µM; in test [10], 2.95 µM. In addition, the GI50 in test [2] is 0.481 µM; in test [3] it was 0.806 µM; in test [4], 1.28 µM; in [5], 1.62 µM; in test [6] it was 1.17 µM; in test [7], 0.681 µM. Also, the GI50 is 1.09 µM in [8], 0.873 µM in [9] and 1.6 µM in test [10].

As for `CC(=O)OC1CCC2(C)C(=CC(C3C=C4CC(OC(C)=O)CCC4(C)C4=C3C3CC5OC6(CCC(C)CO6)C(C)C5C3(C)CC4)C3=C2CCC2(C)C3CC3OC4(CCC(C)CO4)C(C)C32)C1` (centres undefined), the TGI in test [1] turned out to be 28.4 µM; in test [2], 31.9 µM; in test [3], 27.1 µM; in test [4], 28.9 µM; in test [5] it was 32.7 µM; in test [6], 27.2 µM. Moreover, the TGI in [7] worked out at 26.4 µM; in test [8] it was 16.2 µM; in test [9] it was 15.2 µM; in [10], 25.7 µM.

Regarding `C=C1C(C)C2C(Cc3ccccc3)NC(=O)C23C(OC(C)=O)/C=C/C(C)(O)CC(C)C/C=C/C3C1O` (centres undefined), the TGI in [1] was more than 100 µM; in [2], more than 100 µM; in [3] it was 1.01 µM; in [4], 1.1 µM; in [5] it was 46.6 µM; in test [6], more than 100 µM. For the same compound, the TGI in test [7] was more than 94.4 µM; in test [8], 71.2 µM; in test [9] it was more than 100 µM; in [10], 35.6 µM.

For the compound `O=C1/C(=C/c2cccs2)CCC/C1=C\c1cccs1`, the GI50 in test [1] is more than 100 µM; in test [2] it was more than 100 µM; in [3], 10.6 µM; in test [4], more than 42.7 µM; in [5], 26.5 µM; in test [6] it was 46.6 µM. Also, the GI50 in test [7] was more than 48.8 µM; in [8], more than 100 µM; in [9] it was more than 100 µM; in test [10], more than 100 µM. For the same compound, the TGI in test [1] is more than 100 µM; in test [2], more than 100 µM; in [3] it was 57.8 µM; in test [4], more than 85.7 µM; in [5] it was 74.2 µM; in test [6], more than 100 µM. Moreover, the TGI in test [7], in [8], in test [9] and in test [10] was more than 100 µM throughout.

Take `COc1cc(C2C(C#N)=C(N)OC3=C2C(=O)c2ccccc2C3=O)cc(OC)c1OC` (centres undefined): the GI50 was 0.43 µM in test [1]; 1.3 µM in test [2]; 0.861 µM in test [3]; 2.79 µM in [4]; 4.88 µM in [5]; 0.474 µM in [6]. Moreover, the GI50 in test [7] was 1.18 µM; in test [8], 1.36 µM; in test [9], 0.415 µM; in [10], 0.439 µM. Besides, the TGI in test [1] is 30.6 µM; in [2] it was 11.1 µM; in [3], 24.9 µM; in [4], 21.3 µM; in test [5], more than 100 µM; in test [6] it was 15.9 µM. Also, the TGI is 13.7 µM in test [7], 33.5 µM in [8], more than 100 µM in [9] and 1.81 µM in test [10].

`CCNCCNc1cc(-c2ccc(F)cc2)c(C#N)c2nc3ccccc3n12`: the GI50 in test [1] was 2.24 µM; in test [2], 3.89 µM; in test [3] it was 2.82 µM; in test [4], 1.82 µM; in test [5] it was 13.5 µM; in test [6] it was 4.01 µM. In addition, the GI50 was 1.77 µM in test [7], 2.86 µM in test [8], 2.15 µM in test [9] and 1.74 µM in test [10]. Besides, the TGI was 4.34 µM in test [1]; 14.4 µM in [2]; 8.12 µM in test [3]; 3.75 µM in test [4]; 26.4 µM in test [5]; 14.9 µM in test [6]. Moreover, the TGI in test [7] is 3.45 µM; in test [8], 7.58 µM; in [9], 4.64 µM; in [10], 3.18 µM.

Take `COc1ccc(/C=C2\COc3ccc(-c4ccccc4)cc3C2=O)cc1O`: the GI50 in test [1] is 1.72 µM; in [2] it was 3.78 µM; in test [3] it was 2.55 µM; in [4], 4.16 µM; in test [5] it was 4.16 µM; in [6], 2.49 µM. Moreover, the GI50 in test [7] was 1.04 µM; in test [8] it was 3.61 µM; in test [9], 3.6 µM; in [10] it was 1.51 µM. Also, the TGI in [1] came out at 3.53 µM; in test [2], 14.5 µM; in test [3] it was 18.9 µM; in test [4], 16.1 µM; in test [5], 22.3 µM; in test [6], 9.69 µM. In addition, the TGI in test [7] was 4.31 µM; in test [8], more than 100 µM; in test [9], more than 100 µM; in [10], 3.68 µM.
